Among the data in PubChem BioAssay (NCI) are TGI values, retold here.

Holding throughout (assay): DTP human tumour cell line panel, 48 h
In assay [1] the test system is BT-549 breast.
The test system of assay [2] is DU-145 prostate.
For assay [3], the system named is HCT-116 colon.
For assay [4], the system named is HL-60(TB) leukemia.
The test system of assay [5] is M14 melanoma.
Assay [6] relates to MCF7 breast.
In assay [7] the test system is MDA-MB-231 breast.
For assay [8], the system named is NCI-H460 lung.
For assay [9], the system named is NCI-H522 lung.
Assay [10] deals with OVCAR-5 ovarian.
Assay [11] has as its system PC-3 prostate.
Assay [12] relates to RPMI-8226 leukemia.
Assay [13] relates to RXF 393 renal.
The test system of assay [14] is SK-MEL-2 melanoma.
Assay [15] relates to SK-MEL-28 melanoma.
The subject of assay [16] is SR leukemia.

As usually defined, the TGI is the concentration giving total growth inhibition. Higher therefore signals less potent growth arrest.

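Cultured in 96-well plates, cells were exposed to test compound for 48 hours across five concentrations. The concentration for full growth arrest is given as TGI.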 A value given as a limit tells only on which side of the number the result lay.

`CC(=O)OCC1OC(N2C(C)=C(C(C)=O)C(c3ccc(Cl)cc3)C(C#N)=C2S)C(OC(C)=O)C(OC(C)=O)C1OC(C)=O` (stereo not drawn): the TGI in [1], in [2], in assay [3], in assay [4], in assay [5] and in assay [6] was over 100 µM throughout. Moreover, the TGI in assay [7], in assay [8], in [9], in [10], in assay [11] and in assay [12] was over 100 µM in each case. Moreover, the total growth inhibition concentration (TGI) in [13], in assay [14], in [15] and in [16] was over 100 µM throughout.
As for `O=C1OC(CCCN2CCCCC2)(c2ccccc2)CC12CCCC2` (stereo not drawn), the TGI in assay [1] was over 100 µM; in [2] it was over 100 µM; in assay [3], over 100 µM; in assay [4], over 100 µM; in assay [5], 34.3 µM; in assay [6], over 100 µM. Further, the total growth inhibition concentration (TGI) in [7], in assay [8], in assay [9], in [10], in assay [11] and in [12] was over 100 µM throughout. Further, the TGI in assay [13] was over 100 µM; in [14] it was over 100 µM; in assay [15], 57 µM; in [16], over 100 µM.
In the case of `CS(=O)(=O)Nc1ccc2ccccc2c1-c1c(NS(C)(=O)=O)ccc2ccccc12`, the TGI in [1], in [2], in assay [3], in assay [4], in assay [5] and in assay [6] was over 25 µM in each case. Further, the TGI in assay [7], in [8], in assay [9], in assay [10], in [11] and in assay [12] was over 25 µM in each case. In addition, the TGI in assay [13], in [14], in assay [15] and in [16] was over 25 µM in each case.
For `O=C1/C(=C\c2ccc([N+](=O)[O-])cc2)N(S(=O)(=O)c2ccccc2)c2ncccc21`, the TGI in [1] is 32.7 µM; in assay [2], 75.4 µM; in assay [3] it was 43.1 µM; in [4], 5.4 µM; in [5], 41.2 µM; in assay [6] it was over 100 µM. The TGI stood at 38.4 µM in assay [7]; 38.3 µM in assay [8]; 54.4 µM in assay [9]; 33.4 µM in assay [11]; 41 µM in [12]; 37 µM in [13]. The concentration for total growth inhibition (TGI) in assay [15] worked out at 41.8 µM; in assay [16] it was 20.8 µM.
In the case of `COc1cc2c(cc1OCCCCCCCCCCN1C(=O)c3cccc4cccc(c34)C1=O)N=C[C@@H]1CCCN1C2=O`, the TGI in assay [1] was 20.9 µM; in assay [2], 34.4 µM; in assay [3], over 100 µM; in assay [4], 43.2 µM; in assay [5] it was 54.6 µM; in assay [6] it was 9.26 µM. For the same compound, the TGI worked out at 20.4 µM in assay [7]; 78 µM in assay [8]; 28.9 µM in assay [9]; 61.2 µM in [10]; 12.3 µM in [11]; 4 µM in assay [12]. Also, the TGI amounted to 10.1 µM in assay [13], 20.3 µM in assay [14], 33 µM in [15] and 3.84 µM in assay [16].
Regarding `Nc1ccccc1CCN1CCN(CCCc2ccccc2)CC1`, the TGI was over 100 µM in [1]; over 100 µM in assay [2]; over 100 µM in assay [3]; over 100 µM in assay [4]; 35.4 µM in assay [5]; over 100 µM in [6]. Besides, the TGI in assay [7] is over 100 µM; in [8], over 100 µM; in [9] it was over 100 µM; in [10], over 100 µM; in [11], over 100 µM; in assay [12] it was 75.5 µM. Moreover, the TGI in assay [14], in assay [15] and in [16] was over 100 µM in each case.
In the case of `CSc1c(C(=O)Nc2ccccc2)c(N)n(N)c(=O)c1C#N`, the TGI in assay [1], in assay [2], in assay [3], in [4], in [5] and in assay [6] was over 100 µM in each case. For the same compound, the TGI in assay [7], in assay [8], in assay [9], in assay [10], in [11] and in assay [12] was over 100 µM each time. Besides, the TGI in assay [13], in assay [14], in assay [15] and in assay [16] was over 100 µM each time.
On to `CCOC(=O)c1sc(=S)n(-c2ccc(Cl)cc2)c1-n1cc(-c2ccccc2)c(C#N)c1N`, for which the TGI is 48.1 µM in assay [1]; 21.2 µM in assay [2]; over 100 µM in assay [3]; over 100 µM in assay [4]; over 100 µM in assay [5]; over 100 µM in assay [6]. In addition, the TGI in assay [7] was 60.1 µM; in assay [8], over 100 µM; in assay [9] it was 14.5 µM; in assay [10] it was over 100 µM; in assay [11], 27 µM; in [12] it was over 100 µM. The TGI is 64.3 µM in assay [13], 64 µM in assay [14], over 100 µM in [15] and 46.7 µM in assay [16].
As to `COC(=O)c1csc([C@@H](OC(=O)[C@H](C)[C@H](CCCC(C)(Cl)Cl)OC(=O)c2csc([C@H](O)CO)n2)C(C)C)n1`, the TGI came to 31 µM in [1]; 24.8 µM in assay [2]; 35.1 µM in assay [4]; 31.6 µM in assay [5]; 35 µM in [6]; 36.1 µM in assay [7]. In addition, the TGI in [8] stood at 23.2 µM; in assay [9] it was 32.9 µM; in assay [10], 29 µM; in [11], 26.7 µM; in [12], 34.1 µM; in assay [13] it was 4.53 µM. Moreover, the TGI in assay [14] is 28.9 µM; in [15], 24.2 µM; in assay [16] it was 32.2 µM.
As for `N#Cc1ccc(-c2nc3c(N)ncnc3o2)cc1`, the TGI in assay [1], in assay [2], in assay [3], in assay [4], in assay [5] and in assay [6] was over 100 µM each time. Further, the concentration for total growth inhibition (TGI) in assay [7], in assay [8], in assay [9], in [10], in [11] and in assay [12] was over 100 µM in each case. In addition, the TGI in assay [13], in assay [14], in [15] and in assay [16] was over 100 µM throughout.
With `COc1ccc(/C=C2\N=C(N3CCCCC3)NC2=O)cc1`, the TGI in [1], in assay [2], in assay [3], in assay [4], in [5] and in assay [6] was over 100 µM in each case. The TGI in [7], in [9], in assay [10], in [11], in [12] and in assay [13] was over 100 µM throughout. Also, the TGI in assay [14], in assay [15] and in [16] was over 100 µM in each case.
On to `COC(=O)C1Cc2cc3c(cc2C1=O)CCC3` (stereo not drawn), for which the TGI in [1], in assay [2], in assay [3], in assay [4], in assay [5] and in assay [6] was over 100 µM throughout. For the same compound, the TGI in [7], in [8], in assay [9], in assay [10], in assay [11] and in assay [12] was over 100 µM each time. In addition, the TGI in assay [14], in [15] and in [16] was over 100 µM throughout.
As for `O=C(NC1=C(Cl)C(=O)c2ccccc2C1=O)c1ccccc1`, the TGI is 44.4 µM in [1]; over 100 µM in [2]; 32.2 µM in assay [3]; over 100 µM in [4]; over 100 µM in assay [5]; 39.2 µM in assay [6]. In addition, the TGI is over 100 µM in assay [7]; over 100 µM in [8]; 52.3 µM in assay [9]; over 100 µM in assay [10]; over 100 µM in assay [11]; over 100 µM in [12]. For the same compound, the figures for the TGI in assay [13], in assay [15] and in assay [16] were 34 µM, over 100 µM and over 100 µM, respectively.
In the case of `Cc1c(N2C(=O)C(Cl)C2/C=C/c2ccccc2)c(=O)n(-c2ccccc2)n1C` (stereo not drawn), the TGI was over 100 µM in assay [1]; over 100 µM in assay [2]; 34.8 µM in assay [3]; 45.3 µM in assay [4]; 36 µM in [5]; 87.5 µM in assay [6]. The TGI was 72.8 µM in assay [7]; over 100 µM in assay [8]; 34.5 µM in assay [9]; over 100 µM in assay [10]; over 100 µM in assay [11]; 34.7 µM in [12]. In addition, the TGI in assay [13] turned out to be 79.3 µM; in [14], 40.6 µM; in assay [16], 43.9 µM.
`C=CCn1c(N)c(C#N)c(C#N)c1CCC`: the total growth inhibition concentration (TGI) in [1], in [2], in [4], in [5], in assay [6] and in [7] was over 100 µM throughout. Further, the TGI in assay [9], in assay [10], in assay [11], in assay [12], in [13] and in [14] was over 100 µM each time. The compound further registered a TGI in assay [16] of over 100 µM.
As to `Cc1cc(C)c2c(=O)cc(-c3cccc4ccccc34)[nH]c2n1`, the TGI in assay [1] was over 100 µM; in [2], over 100 µM; in assay [3], over 100 µM; in assay [4] it was 0.734 µM; in assay [5], over 51.4 µM; in [6], over 100 µM. The TGI is 18.6 µM in assay [7]; over 100 µM in assay [8]; over 100 µM in [10]; over 100 µM in assay [11]; 29 µM in [12]; over 37.1 µM in [13]. Further, the total growth inhibition concentration (TGI) in assay [15] and in assay [16] was over 100 µM throughout.
Turning to `N#Cc1c(-c2ccc(Cl)cc2)c2c(n(C3OC(CO)C(O)C(O)C3O)c1=S)CCCC2` (stereo not drawn), the total growth inhibition concentration (TGI) was over 100 µM in assay [1]; over 100 µM in [2]; over 100 µM in assay [3]; 58.9 µM in assay [4]; over 100 µM in [5]; over 100 µM in assay [6]. For the same compound, the TGI in assay [7], in [8], in assay [9], in assay [10], in assay [11] and in assay [12] was over 100 µM each time. The TGI in [14], in [15] and in assay [16] was over 100 µM each time.
Regarding `C/C(=N\NS(=O)(=O)c1ccc(C)cc1)c1ccccn1`, the TGI in assay [1] is over 100 µM; in assay [2], over 100 µM; in assay [3], over 100 µM; in [4], 73.3 µM; in assay [5], over 100 µM; in assay [6], over 100 µM. The TGI in assay [7], in assay [8], in [10], in assay [11], in assay [12] and in [13] was over 100 µM each time. Besides, the TGI in [14], in [15] and in assay [16] was over 100 µM in each case.
